Like-named read-outs stand apart in the source and are kept apart here.
Experiments:
Mcl-1 = Mcl-1 (Homo sapiens (Human), UniProt Q07820); experiment: Fluorescence polarization anisotropy (FPA) competition assay, FITC-Bak or FITC-Bim BH3 peptide; type: binding; details: read-out: Ki for Inhibition of Mcl-1 by FPA assay
[1] = tested on: H929 human cancer cell lines; experiment: Cellular viability / proliferation (Cell TiterGlo, 72 h); type: cell-based
Procedure, shortened: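 1,000 cells/well, 10% FBS medium; compound added at 24 h, 2-fold dilutions from 50 μM top, DMSO <1% final. 72 h exposure, CellTiterGlo 30 min RT dark, luminescence read. IC50 by 4-parameter fit.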

[2] = Homo sapiens, NCI-H929, 72 h, read-out: GI50 on cellular proliferation of H929 human cancer cell lines, H929 cells, 72 h, Cell TiterGlo, 10% FBS
[3] = H929 cells, 72 h, Cell TiterGlo, 10% FBS, read-out: GI50 on cellular proliferation of H929 human cancer cell lines

Mcl-1, sequence (Q07820 172-327): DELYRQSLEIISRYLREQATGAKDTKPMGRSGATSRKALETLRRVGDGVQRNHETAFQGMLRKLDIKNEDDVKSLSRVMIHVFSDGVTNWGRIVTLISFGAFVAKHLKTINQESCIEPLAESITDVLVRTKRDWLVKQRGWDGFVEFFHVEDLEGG

Structure (SMILES) | Ki (Mcl-1) [nM] | GI50 [1, 2] [nM] | GI50 [1, 3] [nM]
Cc1cc(OCCCc2c3n(c4c(-c5c(C)nn(C)c5C)c(Cl)ccc24)[C@H](C)CN(c2cn(C)c4ccc(C(=O)N(C)C)cc24)C3=O)cc(C)c1Cl [Example 289, 3-[(4R)-7-chloro-10-[3-(4-chloro-3,5-dimethyl-phenoxy)propyl]-4-methyl-1-oxo-6-(1,3,5-trimethylpyrazol-4-yl)-3,4-dihydropyrazino[1,2-a]indol-2-yl]-N,N,1-trimethyl-indole-5-carboxamide] | 15 | 5200 | –
Cc1cc(OCCCc2c3n(c4c(-c5c(C)nn(C)c5C)c(Cl)ccc24)CCCN(c2cc(C(=O)O)c4cnn(CCN5CCOCC5)c4c2)C3=O)cc(C)c1Cl [Example 14, 6-[8-Chloro-11-[3-(4-chloro-3,5-dimethyl-phenoxy)propyl]-1-oxo-7-(1,3,5-trimethylpyrazol-4-yl)-4,5-dihydro-3H-[1,4]diazepino[1,2-a]indol-2-yl]-1-(2-morpholinoethyl)indazole-4-carboxylic acid] | < 1 | 3200 | –
Cc1cc(N2C[C@@H](C)n3c(c(CCCOc4cc(C)c(Cl)c(C)c4)c4ccc(Cl)c(-c5c(C)ncnc5C)c43)C2=O)c2c(c1)cc(C(N)=O)n2Cc1ccccn1 [Example 379, (R)-7-(7-chloro-10-(3-(4-chloro-3,5-dimethylphenoxy)propyl)-6-(4,6-dimethylpyrimidin-5-yl)-4-methyl-1-oxo-3,4-dihydropyrazino[1,2-a]indol-2(1H)-yl)-5-methyl-1-(pyridin-2-ylmethyl)-1H-indole-2-carboxamide] | 3.6 | 560 | –
Cc1cc(OCCCc2c3n(c4c(-c5c(C)nn(C)c5C)c(Cl)ccc24)[C@H](C)CN(c2cc(C(=O)O)cc4c2ccn4CCN2CCOCC2)C3=O)cc(C)c1Cl [Example 96, (R)-4-(7-chloro-10-(3-(4-chloro-3,5-dimethylphenoxy)propyl)-4-methyl-1-oxo-6-(1,3,5-trimethyl-1H-pyrazol-4-yl)-3,4-dihydropyrazino[1,2-a]indol-2(1H)-yl)-1-(2-morpholinoethyl)-1H-indole-6-carboxylic acid] | 2.9 | 4700 | –
Cc1cc(OCCCc2c3n(c4c(-c5c(C)ncnc5C)c(Cl)ccc24)[C@H](C)CN(c2cccc4cc(C(=O)O)n(C)c24)C3=O)cc(C)c1Cl [Example 238, 7-[(4R)-7-chloro-10-[3-(4-chloro-3,5-dimethyl-phenoxy)propyl]-6-(4,6-dimethylpyrimidin-5-yl)-4-methyl-1-oxo-3,4-dihydropyrazino[1,2-a]indol-2-yl]-1-methyl-indole-2-carboxylic acid] | < 1 | 340 | –
Cc1cc(OCCCc2c3n(c4c(-c5c(C)nn(C)c5C)c(Cl)ccc24)[C@H](C)CN(c2cccc4c2cc(-c2nnco2)n4C)C3=O)cc(C)c1Cl [Example 347, (R)-7-Chloro-10-(3-(4-chloro-3,5-dimethylphenoxy)propyl)-4-methyl-2-(1-methyl-2-(1,3,4-oxadiazol-2-yl)-1H-indol-4-yl)-6-(1,3,5-trimethyl-1H-pyrazol-4-yl)-3,4-dihydropyrazino[1,2-a]indol-1(2H)-one] | 3.6 | 1900 | –
Cc1cc(OCCCc2c3n(c4c(-c5c(C)nn(C)c5C)c(Cl)ccc24)[C@H](C)CN(c2cccc4cc(C(=O)O)n(Cc5ncccn5)c24)C3=O)cc(C)c1Cl [Example 329, (R)-7-(7-Chloro-10-(3-(4-chloro-3,5-dimethylphenoxy)propyl)-4-methyl-1-oxo-6-(1,3,5-trimethyl-1H-pyrazol-4-yl)-3,4-dihydropyrazino[1,2-a]indol-2(1H)-yl)-1-(pyrimidin-2-ylmethyl)-1H-indole-2-carboxylic acid] | < 1 | 1100 | –
Cc1cc(OCCCc2c3n(c4c(-c5c(C)nn(C)c5C)c(Cl)ccc24)[C@H](C)CN(c2cn(C)c4ccc(C(=O)NNc5ccccc5)cc24)C3=O)cc(C)c1Cl [Example 427, (R)-3-(7-Chloro-10-(3-(4-chloro-3,5-dimethylphenoxy)propyl)-4-methyl-1-oxo-6-(1,3,5-trimethyl-1H-pyrazol-4-yl)-3,4-dihydropyrazino[1,2-a]indol-2(1H)-yl)-1-methyl-N′-phenyl-1H-indole-5-carbohydrazide] | 1.2 | 490 | –
Cc1cc(OCCCc2c3n(c4c(-c5c(C)nn(C)c5C)c(Cl)ccc24)[C@H](C)CN(c2cn(C)c4cccc(C(=O)O)c24)C3=O)cc(C)c1Cl [Example 106, (R)-3-(7-Chloro-10-(3-(4-chloro-3,5-dimethylphenoxy)propyl)-4-methyl-1-oxo-6-(1,3,5-trimethyl-1H-pyrazol-4-yl)-3,4-dihydropyrazino[1,2-a]indol-2(1H)-yl)-1-methyl-1H-indole-4-carboxylic acid] | < 1 | 790 | –
Cc1cc(OCCCc2c3n(c4c(-c5c(C)nn(C)c5C)c(Cl)ccc24)[C@H](C)CN(c2ccc(OCc4ccccc4)c4c2cc(C(=O)O)n4C)C3=O)cc(C)c1Cl [Example 312, (M, R)-7-(benzyloxy)-4-(7-chloro-10-(3-(4-chloro-3,5-dimethylphenoxy)propyl)-4-methyl-1-oxo-6-(1,3,5-trimethyl-1H-pyrazol-4-yl)-3,4-dihydropyrazino[1,2-a]indol-2(1H)-yl)-1-methyl-1H-indole-2-carboxylic acid] | 1.9 | – | 5700
COCCOc1ccc(N2C[C@@H](C)n3c(c(CCCOc4cc(C)c(Cl)c(C)c4)c4ccc(Cl)c(-c5c(C)nn(C)c5C)c43)C2=O)c2c1cc(C(=O)O)n2C [Example 325, (M, R)-7-(7-Chloro-10-(3-(4-chloro-3,5-dimethylphenoxy)propyl)-4-methyl-1-oxo-6-(1,3,5-trimethyl-1H-pyrazol-4-yl)-3,4-dihydropyrazino[1,2-a]indol-2(1H)-yl)-4-(2-methoxyethoxy)-1-methyl-1H-indole-2-carboxylic acid] | < 1 | – | 290
Cc1cc(OCCCc2c3n(c4c(-c5c(C)nn(C)c5C)c(Cl)ccc24)[C@H](C)CN(c2cc(OCCN4CCN(C)CC4)cc4cc(C(=O)O)n(C)c24)C3=O)cc(C)c1Cl [Example 453, (R)-7-(7-Chloro-10-(3-(4-chloro-3,5-dimethylphenoxy)propyl)-4-methyl-1-oxo-6-(1,3,5-trimethyl-1H-pyrazol-4-yl)-3,4-dihydropyrazino[1,2-a]indol-2(1H)-yl)-1-methyl-5-(2-(4-methylpiperazin-1-yl)ethoxy)-1H-indole-2-carboxylic acid] | 1.7 | 330 | –
Cc1cc(OCCCc2c3n(c4c(-c5c(C)nn(C)c5C)c(Cl)ccc24)[C@H](C)[C@@H](C)N(c2cccc(C(=O)O)c2)C3=O)cc(C)c1Cl [Example 141, 3-((3R,4R)-7-chloro-10-(3-(4-chloro-3,5-dimethylphenoxy)propyl)-3,4-dimethyl-1-oxo-6-(1,3,5-trimethyl-1H-pyrazol-4-yl)-3,4-dihydropyrazino[1,2-a]indol-2(1H)-yl)benzoic acid] | 4.5 | 9500 | –
Cc1cc(OCCCc2c3n(c4c(-c5c(C)nn(CC6CCN(C)CC6)c5C)c(Cl)ccc24)[C@H](C)CN(c2cn(C)c4c(C)cc(C(=O)O)cc24)C3=O)cc(C)c1Cl [Example 161, (R)-3-(7-chloro-10-(3-(4-chloro-3,5-dimethylphenoxy)propyl)-6-(3,5-dimethyl-1-((1-methylpiperidin-4-yl)methyl)-1H-pyrazol-4-yl)-4-methyl-1-oxo-3,4-dihydropyrazino[1,2-a]indol-2(1H)-yl)-1,7-dimethyl-1H-indole-5-carboxylic acid] | 2.8 | 480 | –
